# Reference: US7902188B2, “Morpholine dopamine agonists” (Pfizer Inc., priority 2002, dated 2011)
# Target: T1, human dopamine D2long receptor (Homo sapiens, UniProt P14416)
# T1 construct: expressed in transfected cells; host or cells: GH4C1 rat pituitary cells
# Test: Inhibition via dopamine D2 receptors of forskolin-stimulated adenylate cyclase activity (cAMP Flashplate, GH4C1/hD2L cells)
# Format: cell-based
# Conditions: D2 EC50 value divided by D3 EC50 value; where D2 EC50 was >10000, a figure of 10000 was used
# Method: A suitable assay for determining functionally the activity of a compound at D3 and/or […] dopamine receptors is detailed hereinbelow. Compounds are evaluated as agonists or antagonists at the dopamine D2 and D3 receptors by looking at cAMP levels in a GH4C1 and CHO cell-line expressing the human D2 and D3 receptors, respectively.
# Inhibition Via Dopamine D2 Receptors of Forskolin Stimulated Adenylate Cyclase Activity Materials Cell Culture Media:
# 4× assay stock of 20 μM made by carrying out a 1000-fold dilution in PBS buffer, 25 μl of the 20 μM stock is added to a final assay volume of 100 μl, giving a final assay concentration of 5 μM.
# • Pramipexole is included as a reference standard. A 10-point, semi-log curve is generated every 4 plates. Compound responses are normalised to the minimum (0 nM pramipexole) and maximum (100 nM Pramipexole) responses generated by the cells. All test compounds may also be tested via a 10-point (semi-log) curve. • Test compounds are dissolved in 100% DMSO to yield a stock concentration of 10 mM, (1000× the final assay concentration required, e.g. 10 mM will give a top concentration of 10000 nM). • Pramipexole is dissolved in 100% DMSO to give a concentration of 10 mM. […]
# T1 sequence (P14416 whole entry): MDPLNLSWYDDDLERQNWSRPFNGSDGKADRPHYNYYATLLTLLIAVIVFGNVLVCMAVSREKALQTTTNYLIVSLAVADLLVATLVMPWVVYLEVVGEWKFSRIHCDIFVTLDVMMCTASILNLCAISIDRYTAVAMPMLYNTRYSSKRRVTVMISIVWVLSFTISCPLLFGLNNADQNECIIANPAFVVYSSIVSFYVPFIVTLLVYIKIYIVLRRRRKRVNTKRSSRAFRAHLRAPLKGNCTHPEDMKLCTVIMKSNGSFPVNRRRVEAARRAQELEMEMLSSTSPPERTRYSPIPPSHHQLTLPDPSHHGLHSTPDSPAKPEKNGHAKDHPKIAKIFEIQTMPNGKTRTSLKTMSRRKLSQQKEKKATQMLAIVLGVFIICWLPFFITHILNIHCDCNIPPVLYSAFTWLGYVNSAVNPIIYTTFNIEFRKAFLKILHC
compound,measurement,value
"CCCN1CCO[C@H](c2cccc(O)c2)C1.Cl [Example 8, R-(−)-3-(4-Propylmorpholin-2-yl)phenol hydrochloride]",selectivity for D3 over D2,1315.8 fold
